Laboratory results as given in the supplement of paper PMC10307832.

What was measured:
Experiment in all cases: relative viability (nuclei count vs DMSO), 5 days (fraction); higher = more cells survive
[1] = compound: C/C(=N\NC(=S)N1CCC1)/C2=CC=CC=N2 + CCNC(=O)c1noc(-c2cc(C(C)C)c(O)cc2O)c1-c1ccc(CN2CCOCC2)cc1 [Luminespib] (partner 0.01 µM)
Summary of the method: (§1)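 Five library-drug doses in √10 steps were combined with a fixed anchor-drug dose, or a single drug was given alone, by pin tool to lung cancer cell lines in 1536-well plates the day after seeding. Nuclei were stained and counted after 5 days. Relative viability is the nuclei count in treated wells over that in vehicle wells, taken as the median of duplicate plates.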

[2] = compound: C/C(=N\NC(=S)N1CCC1)/C2=CC=CC=N2 + CC(C)C[C@H](NC(=O)[C@H](Cc1ccccc1)NC(=O)c1cnccn1)B(O)O [Bortezomib] (partner 0.002 µM)
Summary of the method: as §1

[3] = compound: C/C(=N\NC(=S)N1CCC1)/C2=CC=CC=N2 + Cc1nc(Nc2ncc(C(=O)Nc3c(C)cccc3Cl)s2)cc(N2CCN(CCO)CC2)n1 [Dasatinib] (partner 0.075 µM)
Summary of the method: as §1

[4] = compound: C/C(=N\NC(=S)N1CCC1)/C2=CC=CC=N2 + CC(=O)c1c(C)c2cnc(Nc3ccc(N4CCNCC4)cn3)nc2n(C2CCCC2)c1=O [Palbociclib] (partner 0.5 µM)
Summary of the method: as §1

Cell Line | relative viability ([1]; first compound 0.05 µM) | relative viability ([1]; first compound 0.1581 µM) | relative viability ([1]; first compound 0.5 µM) | relative viability ([1]; first compound 1.581 µM) | relative viability ([1]; first compound 5 µM) | relative viability ([2]; first compound 0.05 µM) | relative viability ([2]; first compound 0.1581 µM) | relative viability ([2]; first compound 0.5 µM) | relative viability ([2]; first compound 1.581 µM) | relative viability ([2]; first compound 5 µM) | relative viability ([3]; first compound 0.05 µM) | relative viability ([3]; first compound 0.1581 µM) | relative viability ([3]; first compound 0.5 µM) | relative viability ([3]; first compound 1.581 µM) | relative viability ([3]; first compound 5 µM) | relative viability ([4]; first compound 0.05 µM) | relative viability ([4]; first compound 0.1581 µM) | relative viability ([4]; first compound 0.5 µM) | relative viability ([4]; first compound 1.581 µM) | relative viability ([4]; first compound 5 µM)
HOP-62 | 0.215 | 0.12 | 0.151 | 0.129 | 0.119 | 0.067 | 0.0599 | 0.0594 | 0.0602 | 0.0491 | 0.0752 | 0.0748 | 0.0769 | 0.0912 | 0.0784 | 0.0827 | 0.234 | 0.0724 | 0.107 | 0.0858
NCI-H1915 | 0.126 | 0.108 | 0.111 | 0.121 | 0.107 | 0.319 | 0.182 | 0.159 | 0.149 | 0.137 | 0.117 | 0.132 | 0.123 | 0.115 | 0.142 | 0.166 | 0.159 | 0.138 | 0.12 | 0.124
NCI-H3122 | 0.0803 | 0.063 | 0.0978 | 0.134 | 0.11 | 0.17 | 0.139 | 0.222 | 0.244 | 0.203 | 0.0675 | 0.0912 | 0.0839 | 0.11 | 0.11 | 0.0974 | 0.166 | 0.103 | 0.148 | 0.127
NCI-H1651 | 0.13 | 0.157 | 0.127 | 0.0971 | 0.138 | 0.167 | 0.149 | 0.151 | 0.15 | 0.137 | 0.195 | 0.174 | 0.126 | 0.0657 | 0.0655 | 0.159 | 0.134 | 0.129 | 0.0856 | 0.0851
NCI-H838 | 0.111 | 0.15 | 0.132 | 0.125 | 0.14 | 0.165 | 0.181 | 0.172 | 0.134 | 0.145 | 0.203 | 0.198 | 0.223 | 0.201 | 0.187 | 0.161 | 0.165 | 0.158 | 0.129 | 0.13
SK-LU-1 | 0.154 | 0.133 | 0.176 | 0.156 | 0.178 | 0.218 | 0.263 | 0.212 | 0.194 | 0.268 | 0.123 | 0.139 | 0.145 | 0.0978 | 0.114 | 0.233 | 0.233 | 0.246 | 0.196 | 0.233
NCI-H441 | 0.205 | 0.158 | 0.251 | 0.181 | 0.164 | 0.162 | 0.153 | 0.171 | 0.146 | 0.127 | 0.143 | 0.15 | 0.159 | 0.108 | 0.156 | 0.13 | 0.112 | 0.124 | 0.0967 | 0.105
NCI-H650 | 0.177 | 0.2 | 0.198 | 0.173 | 0.2 | 0.181 | 0.238 | 0.199 | 0.134 | 0.196 | 0.19 | 0.212 | 0.191 | 0.216 | 0.177 | 0.143 | 0.197 | 0.146 | 0.144 | 0.128
